From paper PMC4537050, “A long pentraxin-3-derived pentapeptide for the therapy of FGF8b-driven steroid hormone-regulated cancers” (Oncotarget, 2015)

Tests used:
S115 cells = experiment: S115 cell proliferation assay; format: cell-based, mouse; conditions: 30 ng/ml FGF8b or 10 nM DHT, 48 h, viable cell counting
Procedure: HUVECs were seeded at 18000 cells/cm^2 in medium containing 2.5% FBS and stimulated with 30 ng/ml FGF8b in the absence or presence of increasing concentrations of ARPCA or ARPVA. S115 cells were seeded at 15000 cells/cm^2 in medium containing 4% hormone-deprived dextran-coated charcoal-stripped heat inactivated FBS, followed by 24 h serum starvation in 1:1 mixture of serum-free Ham's F12 and DMEM. Cells were stimulated for 48 h with 30 ng/ml FGF8b or 10 nM DHT in the presence or absence of different concentrations of ARPCA or ARPVA (as specified in the corresponding figures). Viable cell counts were obtained by the counting function of the MACSQuant® Analyzer (Miltenyi Biotec, Bergisch-Gladbach, Germany, EU).

[1] = test system: FGFR1 phosphorylation in HUVECs; experiment: FGFR1 phosphorylation in FGF8b-stimulated HUVECs (immunofluorescence); format: cell-based, human; conditions: 30 ng/ml FGF8b, 60 μM peptide
Procedure: HUVECs were seeded in Ibidi® μ-Slide 8 wells (Ibidi, Martinsried, Germany, EU) at a density of 30000 cells/cm^2, starved in 2.5% FBS for 24 h and stimulated for 20 minutes with 30 ng/ml of FGF8b in the absence or presence of ARPCA or ARPVA. Following stimulation, cells were washed twice in PBS, fixed in cold acetone for 5 minutes and permeabilized with 0.2% Triton-X100 in PBS for 2 minutes at room temperature (RT). After washing in PBS, cells were blocked for 10 minutes at RT in 1% BSA and then incubated with rabbit anti-pFGFR1 or rabbit anti-FGFR1 antibodies (Santa Cruz Biotechnology) for 1 h at RT. After washing in PBS, cells were incubated with AlexaFluor 594-conjugated anti-rabbit antibody (Invitrogen) and DAPI for 30 minutes at RT. Finally, cells were examined under a Zeiss Fluorescence Axiovert 200M microscope (Carl Zeiss).

[2] = test system: FGFR1 phosphorylation and ERK1/2 activation in S115 cells; experiment: Western blot of FGF8b-treated S115 cells; format: cell-based, mouse; conditions: 30 ng/ml FGF8b, 100 μM peptide, 20 minutes
Procedure: S115 cells were treated with FGF8b (30ng/ml) in the presence or absence of ARPCA (100 μM) or ARPVA (100 μM). After 20 minutes of incubation cell samples were washed in cold PBS and homogenized in RIPA buffer containing 1% Triton-X100, 0.2% BriJ, 1 mM sodium orthovanadate and protease inhibitors cocktail. Protein concentrations were determined using the Bradford protein assay (Bio-Rad Laboratories, Milano, Italy). Blotting analysis was performed using anti-FGFR1, anti-phospho FGFR1 and anti-phosphoERK1/2 antibodies (Santa Cruz Biotechnology, Santa Cruz, CA, USA). Equal loading of the lanes was confirmed by immunoblotting with anti–αTubulin (Sigma-Aldrich) antibody.

## Ac-ARPCA-NH2 [ARPCA, Ac-ARPCA-NH2]
S115 cells
  mitogenic response of S115 cells to FGF8b or DHT: impairs the mitogenic response
[1]
  FGFR1 phosphorylation triggered by FGF8b in HUVECs: efficiently impairs FGFR1 phosphorylation
[2]
  FGFR1 phosphorylation in S115 cells treated with FGF8b: inhibits FGFR1 phosphorylation
  MAPK ERK1/2 activation in S115 cells treated with FGF8b: inhibits
